In patent US20100016392A1, “Pesticidal Aggregates” (priority 2006, published 2010):

Key:
[1] = Amount of pesticide incorporated into Sokalan PA-15/Arquad 18/50 aggregate; type: physicochemical; conditions: pesticide incorporated into aggregate with 1 equivalent Sokalan PA-15 and 2 equivalents Arquad 18/50
Experimental: […] of the active ingredient listed was placed into a 20 mL vial and 1 equivalent of a 1 molar sodium hydroxide solution added. The mixture was stirred until the active dissolved (0.5 or 1.0 gram of deionized water was added if necessary). One equivalent of Sokalan PA-15 (linear polyacrylic acid sodium salt with low molecular weight of 1200 g/mol) was added and the mixture mixed. 2 equivalents of Arquad 18/50 octadecyltrimethyl ammonium chloride (aqueous isopropanol solution) were added and the mixture was stirred using a vortex mixer. Using a process similar to that described in Example 2, the amount of pesticide incorporated into the aggregate was measured.

[2] = cited from earlier work
[3] = cited from earlier work; remark: listed apart in the source
[4] = Uptake of pesticide into the aggregate, UV-spectroscopy of the supernatant; type: physicochemical

## O=C(O)c1nc(Cl)ccc1Cl [Clopyralid (Lontrel)]
[1]
  Percent a.i.: 3.46

## Cc1c(COC(=O)[C@@H]2[C@H](/C=C(\Cl)C(F)(F)F)C2(C)C)cccc1-c1ccccc1 (racemic) [Bifenthrin]
[2]
  octanol/water partition coefficient log P: > 6

## C[C@@H](Oc1ccc(Oc2cnc3cc(Cl)ccc3n2)cc1)C(=O)O [Quizalofop-P]
[1]
  Percent a.i.: 4.76
[3]
  pKa: >3

## CS(=O)(=O)NC(=O)c1cc(Oc2ccc(C(F)(F)F)cc2Cl)ccc1[N+](=O)[O-] [Fomesafen, 5-[2-chloro-4-(trifluoromethyl)phenoxy]-N-(methylsulfonyl)-2-nitrobenzamide]
[1]
  Percent a.i.: 7.17

## CCc1cnc(C2=NC(C)(C(C)C)C(=O)N2)c(C(=O)O)c1 (racemic) [Imazethapyr, (+/−)-2-[4,5-dihydro-4-methyl-4-(1-methylethyl)-5-oxo-1H-imidazol-2-yl]-5-ethyl-3-pyridinecarboxylic acid]
[1]
  Percent a.i.: 5.57

## O=C(NC(=O)c1c(F)cccc1F)Nc1cc(Cl)c(OC(F)(F)C(F)C(F)(F)F)cc1Cl (centres unmarked) [Lufenuron]
[1]
  Percent a.i.: 8.16

## COc1c(Cl)ccc(Cl)c1C(=O)O [Dicamba, 3,6-dichloro-2-methoxybenzoic acid]
[1]
  Percent a.i.: 3.77
[3]
  pKa: 3

## O=C(O)CNCP(=O)(O)O [Glyphosate, N-(phosphonomethyl)glycine]
[1]
  Percent a.i.: 4.70
[3]
  pKa: 4.4

## COc1cc(OC)nc(NC(=O)NS(=O)(=O)c2ncccc2C(=O)N(C)C)n1 [Nicosulfuron]
[1]
  Percent a.i.: 6.96
[3]
  pKa: 4.5

## CCOc1nc(F)cc2nc(S(=O)(=O)Nc3c(Cl)cccc3C(=O)OC)nn12 [Cloransulam-methyl]
[1]
  Percent a.i.: 5.11
[3]
  pKa: 5.4

## CS(=O)(=O)c1ccc(C(=O)C2C(=O)CCCC2=O)c([N+](=O)[O-])c1 [Mesotrione]
[1]
  Percent a.i.: 6.21

## O=C(O)COc1ccc(Cl)cc1Cl [2,4-D, (2,4-dichlorophenoxy)acetic acid]
[1]
  Percent a.i.: 2.45
[3]
  pKa: 2.9

## N#Cc1cc(Br)c(O)c(Br)c1 [Bromoxynil, 3,5-dibromo-4-hydroxybenzonitrile]
[1]
  Percent a.i.: 4.34

## CC1(C(=O)Nc2ccc(O)c(Cl)c2Cl)CCCCC1 [Fenhexamid]
[1]
  Percent a.i.: 4.47

## Cc1nn(-c2cc(NS(C)(=O)=O)c(Cl)cc2Cl)c(=O)n1C(F)F [Sulfentrazone]
[4]; mixture: Atlox 550S 0.075, C14NBr 0.5, sulfentrazone 0.5 weight %
  Uptake of sulfentrazone in the aggregate: 74 w/w %
[4]; mixture: Atlox 550S 0.15, C14NBr 0.7, sulfentrazone 0.5 weight %
  Uptake of sulfentrazone in the aggregate: 83 w/w %
[4]; mixture: Atlox 550S 0.25, C14NBr 0.75, sulfentrazone 0.5 weight %
  Uptake of sulfentrazone in the aggregate: 77 w/w %
[4]; mixture: Atlox 550S 0.5, C14NBr 1.25, sulfentrazone 0.5 weight %
  Uptake of sulfentrazone in the aggregate: 90 w/w %
[4]; mixture: REAX 88B 0.25, C14NBr 0.6, sulfentrazone 0.5 weight %
  Uptake of sulfentrazone in the aggregate: 82 w/w %
[4]; mixture: REAX 88B 0.30, C14NBr 0.8, sulfentrazone 0.5 weight %
  Uptake of sulfentrazone in the aggregate: 92 w/w %
[4]; mixture: REAX 88B 0.5, C14NBr 1.0, sulfentrazone 0.5 weight %
  Uptake of sulfentrazone in the aggregate: 94 w/w %

## CCC(CC)Nc1c([N+](=O)[O-])cc(C)c(C)c1[N+](=O)[O-] [pendimethalin]
[2]
  octanol/water partition coefficient log P: 5.2

## C=C1C[C@]23C[C@@]1(O)CC[C@H]2[C@@]12C=C[C@H](O)[C@@](C)(C(=O)O1)[C@H]2[C@@H]3C(=O)O [Gibberellic acid]
[1]
  Percent a.i.: 6.28
